Reference: patent publication US5096902A, “Heterocyclic compounds containing nitrogen and sulfur, pharmaceutical compositions containing them and process for preparing same” (Richter Gedeon Vegyeszeti Gyar Rt., priority 1989, dated 1992)
Where two headings read alike, the source gives them in different places.

Legend:
[1] = test system: conscious mice; assay: Normobaric hypoxia test (96% nitrogen / 4% oxygen) in conscious mice; type: in vivo; settings: 50 mg/kg i.p.; for Survival time / response vs control in vivo at 50 mg/kg: 30 min before; for Survival time: three series with controls 6.32, 5.78 and 3.05 min; for response vs control in vivo at 50 mg/kg / responders at 50 mg/kg: Mus musculus, ip; for response vs control in vivo at 50 mg/kg: control = 100, read-out: Survival time, % (relative to control group); for responders at 50 mg/kg: protected = survival twice as long as control group, read-out: Protection
From the text: The antihypoxic activity was investigated on conscious mice under normobaric hypoxia. Five male mice each were placed in a glass cylinder of 3 liters volume, which a gaseous mixture containing 96% of nitrogen and 4% of oxygen was bubbled through. The interval passing from the accomodation of the animals until the cessation of their respiratory movement was registered as survival time. Animals surviving a time of two times as long as that of the control group, were considered to be protected.
Ten animals each were intraperitoneally (i.p.) given a dose of 50 mg/kg of body-weight (hereinafter abbreviated: mg/kg) each of the substances 30 minutes before the accommodation in the glass cylinders. The average time of survival, the percentage of elongation of survival time in comparison to that of the control group and the percentage of the animals protected are shown in Table I.

[2] = test system: mice; assay: Hypobaric hypoxia test; type: in vivo; settings: Mus musculus; oral, mice starved 16 hours, 170 Hgmm, 1 hour after treatment; protected = survival twice control; probit analysis
Procedure: (§1) The antihypoxic effect of the compounds according to the invention was proven also by using the methods of asphyxial anoxia and hypobaric hypoxia. These investigations were carried out by oral administration also proving the oral efficiency which makes possible use of the active compounds according to the invention in a tablet form.
Mice starved for 16 hours were orally treated with the compounds according to the invention, and placed into a desiccator one hour following the treatment. The pressure in the desiccator was reduced to 170 Hgmm within 20 seconds and the survival time was registered from this time until the cessation of respiratory movement. Animals surviving twice as long as the average survival time of the control group were considered to be protected.
(§2) In the cases of both methods, the ED50 values, i.e. the dose protecting half of the treated animals from the hypoxia, were calculated by using probit analysis.

[3] = test system: mice; assay: Asphyxial anoxia test; type: in vivo; settings: Mus musculus; oral, mice starved 16 hours, 1 hour after treatment; protected = survival longer by 30% than control; probit analysis
Procedure: as §1
Mice starved for 16 hours were orally treated with the compounds according to the invention and after one hour, they were placed into well-closed glass bottles of 100 ml volume. The interval passing from closing the bottle until the cessation of the respiratory movement was registered as survival time. Animals surviving longer by 30% than that of average survival time of the control group, were considered to be protected.
as §2

[4] = Toxicity (LD50) on mice; settings: mouse, in vivo
Procedure: The toxicity of the active compound of Example 35a according to the invention was determined on mice.

SMILES | Survival time [1] | response vs control in vivo at 50 mg/kg [1] | responders at 50 mg/kg [1] | ED50 [2] | ED50 [3] | LD50 ([4]; intravenous, read-out: LD50 intravenously) | LD50 ([4]; oral, read-out: LD50 orally)
O=C(CCN1CCSC1)c1ccccc1 [Example 1, 1-phenyl-3-(thiazolidinyl)propan-1-one] | 9.35 min | 148% | 30% | – | – | – | –
COc1ccc(C(=O)CCN2CCSC2)cc1 [Example 8] | 8.27 min | 131% | 20% | – | – | – | –
COc1ccc(C(=O)CCN2CCSC2)c(C)c1 [Example 12] | 10.28 min | 178% | 40% | – | – | – | –
O=C(CCN1CCSC1)c1ccc(Cl)cc1 [Example 17] | 11.00 min | 174% | 60% | 60 mg/kg | 55 mg/kg | – | –
O=C(CCN1CCSC1)c1ccc(Br)cc1 [Example 18] | 10.58 min | 167% | 50% | – | – | – | –
O=C(CCN1CCSC1)c1ccc(Cl)c(Cl)c1 [Example 19] | 7.90 min | 125% | 20% | – | – | – | –
O=C(CCN1CCSC1)c1cccc([N+](=O)[O-])c1 [Example 20] | 7.85 min | 136% | 20% | – | – | – | –
CC(CN1CCSC1)C(=O)c1ccccc1 (stereo not drawn) [Example 22] | 9.27 min | 147% | 30% | – | – | – | –
CC(CN1CCSC1)C(=O)c1ccc(F)cc1 (stereo not drawn) [Example 27] | 5.32 min | 174% | 20% | – | – | – | –
CC(CN1CCSC1)C(=O)c1ccc(Br)cc1 (stereo not drawn) [Example 30] | 8.40 min | 145% | 40% | – | – | – | –
CSc1ccc(C(=O)CCN2CCSC2)cc1 [Example 34, 1-(4-methylthiophenyl)-3-(3-thiazolidinyl)propan-1-one] | 12.76 min | 202% | 70% | – | – | – | –
O=C(CCN1CCSC1)c1ccc(F)cc1 [Example 35a, 1-(4-fluorophenyl)-3-(3-thiazolidinyl)propan-1-one] | 10.75 min | 186% | 60% | 58.7 mg/kg | 18.3 mg/kg | 108 mg/kg | 646 mg/kg
O=C(CCN1CCSC1)c1cccs1 [Example 37, 1-(2-thienyl)-3-(3-thiazolidinyl)propan-1-one] | 12.22 min | 211% | 60% | – | – | – | –
CCc1ccc(C(=O)CCN2CCSC2)s1 [Example 38] | 9.95 min | 172% | 30% | – | – | – | –
O=C(CCN1CCSC1)c1ccc(Cl)s1 [Example 39] | 10.43 min | 180% | 40% | – | – | – | –
CC(CN1CCSC1)C(=O)c1cccs1 (stereo not drawn) [Example 41] | 8.91 min | 154% | 20% | – | – | – | –
O=C(CCN1CCCSC1)c1ccc(-c2ccccc2)cc1 [Example 49] | 9.72 min | 154% | 30% | – | – | – | –
COC(=O)C1N(CCC(=O)c2ccc(F)cc2)CSC1(C)C (stereo not drawn) [Example 70] | 5.78 min | 189% | 60% | – | – | – | –
